The values below come from ChEMBL document CHEMBL1156959, “Potent ketoamide inhibitors of HCV NS3 protease derived from quaternized P1 groups” (Bioorg Med Chem Lett, 2010).

Assay [1] deals with Hepatitis C virus. In words: Inhibition of Hepatitis C virus genotype 1 NS3 protease. The format is functional.
Assay [2] has as its system Hepatitis C virus. Put plainly: Antiviral activity against Hepatitis C virus genotype 1 assessed as Inhibition of RNA replication transfected in human hepatoma cells. The format is functional, Hepacivirus hominis.

The Ki is a dissociation constant, usually derived from enzyme kinetics or from competition with a known ligand. Take `CC[C@@H]1C[C@@]1(NC(=O)[C@@H]1[C@@H]2[C@H](CN1C(=O)[C@@H](NC(=O)NC1(CS(=O)(=O)C(C)(C)C)CCCCC1)C1CCCCC1)C2(C)C)C(=O)C(=O)NC1CC1`: in the assay on Hepatitis C virus [1], the Ki turned out to be 0.6 nM.
The compound `CC(C)(C)[C@H](NC(=O)NC1(CS(=O)(=O)C(C)(C)C)CCCCC1)C(=O)N1C[C@H]2[C@@H]([C@H]1C(=O)NC1(C(=O)C(=O)NC3CC3)CCC1)C2(C)C` displayed a Ki with Hepatitis C virus [1] of 15 nM. This Ki lies about 25-fold higher than the previous one.
On the same count and under the same terms, the value for `CCC[C@@H]1C[C@@]1(NC(=O)[C@@H]1[C@@H]2[C@H](CN1C(=O)[C@@H](NC(=O)NC1(CS(=O)(=O)C(C)(C)C)CCCCC1)C(C)(C)C)C2(C)C)C(=O)C(=O)NC1CC1` was 0.7 nM.
As a reminder, the EC90 is the concentration needed for an effect of 90%. As for `CC[C@@H]1C[C@@]1(NC(=O)[C@@H]1[C@@H]2[C@H](CN1C(=O)[C@@H](NC(=O)N[C@H](CN(C)S(C)(=O)=O)C(C)(C)C)C(C)(C)C)C2(C)C)C(=O)C(=O)NC1CC1`, in the assay with Hepatitis C virus [2], the EC90 came out at 2700 nM. In addition, affinity in the assay on Hepatitis C virus [1] was put at a Ki of 0.2 nM.
In the assay on Hepatitis C virus [1], `CC[C@@H]1C[C@@]1(NC(=O)[C@@H]1[C@@H]2[C@H](CN1C(=O)[C@@H](NC(=O)NC1([C@@H](C)S(=O)(=O)C(C)(C)C)CCCCC1)C1(C)CCCCC1)C2(C)C)C(=O)C(=O)NC1CC1` registered a Ki of 0.95 nM.
Still for that read-out and setting: the value for `CC(C)(C)[C@H](NC(=O)NC1(CS(=O)(=O)C(C)(C)C)CCCCC1)C(=O)N1C[C@H]2[C@@H]([C@H]1C(=O)NC1(C(=O)C(=O)NC3CC3)CC1)C2(C)C` was 18 nM.
For the compound `CC[C@@H]1C[C@@]1(NC(=O)[C@@H]1[C@@H]2[C@H](CN1C(=O)[C@@H](NC(=O)NC1(CS(=O)(=O)C(C)(C)C)CCCCC1)C(C)(C)C)C2(C)C)C(=O)C(=O)NC1CC1`, the Ki in the assay with Hepatitis C virus [1] was determined as 0.11 nM.
With `CC1CC(NC(=O)[C@@H]2[C@@H]3[C@H](CN2C(=O)[C@@H](NC(=O)NC2(CS(=O)(=O)C(C)(C)C)CCCCC2)C(C)(C)C)C3(C)C)(C(=O)C(=O)NC2CC2)C1` (stereo partly drawn), the Ki in the assay on Hepatitis C virus [1] came to 0.42 nM.
As for `CC[C@@H]1C[C@@]1(NC(=O)[C@@H]1[C@@H]2[C@H](CN1C(=O)[C@@H](NC(=O)NC1([C@@H](C)S(=O)(=O)C(C)(C)C)CCCCC1)C1(C)CCCCC1)C2(C)C)C(=O)C(N)=O`, the 90% effect concentration (EC90) in the assay with Hepatitis C virus [2] was determined as 400 nM. For the same compound, the affinity with Hepatitis C virus [1], expressed as Ki, was 0.015 nM.
For the compound `C[C@@H]1C[C@@]1(NC(=O)[C@@H]1[C@@H]2[C@H](CN1C(=O)[C@@H](NC(=O)NC1(CS(=O)(=O)C(C)(C)C)CCCCC1)C(C)(C)C)C2(C)C)C(=O)C(=O)NC1CC1`, the affinity in the assay with Hepatitis C virus [1], expressed as Ki, was 3 nM.
Consider `CC[C@@H]1C[C@@]1(NC(=O)[C@@H]1[C@@H]2[C@H](CN1C(=O)[C@@H](NC(=O)N[C@H](CN1C(=O)CC(C)(C)CC1=O)C(C)(C)C)C(C)(C)C)C2(C)C)C(=O)C(N)=O`, for which the EC90 in the assay on Hepatitis C virus [2] worked out at 1600 nM. For the same compound, the affinity in the assay with Hepatitis C virus [1] corresponds to a Ki of 0.058 nM.
Regarding `CC[C@@H]1C[C@@]1(NC(=O)[C@@H]1[C@@H]2[C@H](CN1C(=O)[C@@H](NC(=O)NC1([C@@H](C)S(=O)(=O)C(C)(C)C)CCCCC1)C1Cc3ccccc3C1)C2(C)C)C(=O)C(=O)NC1CC1`, in the assay with Hepatitis C virus [1], the inhibition constant (Ki) came to 0.5 nM.
With `CC[C@@H]1C[C@@]1(NC(=O)[C@@H]1[C@@H]2[C@H](CN1C(=O)[C@@H](NC(=O)N[C@H](CN1C(=O)CC(C)(C)CC1=O)C(C)(C)C)C(C)(C)C)C2(C)C)C(=O)C(=O)NC1CC1`, in the assay on Hepatitis C virus [2], the concentration for an effect of 90% (EC90) amounted to 500 nM. Besides, in the assay with Hepatitis C virus [1], the Ki amounted to 0.082 nM.
In the assay on Hepatitis C virus [1], `CCC1CC(NC(=O)[C@@H]2[C@@H]3[C@H](CN2C(=O)[C@@H](NC(=O)NC2(CS(=O)(=O)C(C)(C)C)CCCCC2)C(C)(C)C)C3(C)C)(C(=O)C(=O)NC2CC2)C1` (stereo partly drawn) gave a Ki of 0.19 nM.
With `CC(C)(C)NC(=O)N[C@H](C(=O)N1C[C@H]2[C@@H]([C@H]1C(=O)NC(CC1CCC1)C(=O)C(N)=O)C2(C)C)C(C)(C)C` (stereo partly drawn) [BOCEPREVIR], the EC90 in the assay with Hepatitis C virus [2] is 350 nM. Also, in the assay on Hepatitis C virus [1], the affinity corresponds to a Ki of 14 nM.
In the assay with Hepatitis C virus [1], `CC(C)(C)[C@H](NC(=O)NC1(CS(=O)(=O)C(C)(C)C)CCCCC1)C(=O)N1C[C@H]2[C@@H]([C@H]1C(=O)NC1(C(=O)C(=O)NC3CC3)CC(O)C1)C2(C)C` (stereo partly drawn) came in with an inhibitory constant (Ki) of 89 nM.
On to `CC[C@@H]1C[C@@]1(NC(=O)[C@@H]1[C@@H]2[C@H](CN1C(=O)[C@@H](NC(=O)N[C@H](CN1C(=O)CC(C)(C)CC1=O)C(C)(C)C)C1(C)CCCCC1)C2(C)C)C(=O)C(N)=O`, for which the EC90 with Hepatitis C virus [2] turned out to be 400 nM. Further, the Ki in the assay on Hepatitis C virus [1] turned out to be 0.023 nM.
